Laboratory results taken from US6100239A, “13-membered ring macrolide compound, medicine containing the same, and process for producing the same” (Chugai Seiyaku Kabushiki Kaisha, priority 1996, dated 2000).
pIC50: −log10 of the molar value.

Biological target: T1, Motilin receptor (Oryctolagus cuniculus, UniProt G1T803)
T1 construct: homogenized in a 50 mM Tris solution (pH 7.4) to prepare a protein solution; from tissue; host or cells: rabbit duodenum (mucous membrane detached from the tunica muscularis, then homogenized)
T1 sequence (G1T803 1-400): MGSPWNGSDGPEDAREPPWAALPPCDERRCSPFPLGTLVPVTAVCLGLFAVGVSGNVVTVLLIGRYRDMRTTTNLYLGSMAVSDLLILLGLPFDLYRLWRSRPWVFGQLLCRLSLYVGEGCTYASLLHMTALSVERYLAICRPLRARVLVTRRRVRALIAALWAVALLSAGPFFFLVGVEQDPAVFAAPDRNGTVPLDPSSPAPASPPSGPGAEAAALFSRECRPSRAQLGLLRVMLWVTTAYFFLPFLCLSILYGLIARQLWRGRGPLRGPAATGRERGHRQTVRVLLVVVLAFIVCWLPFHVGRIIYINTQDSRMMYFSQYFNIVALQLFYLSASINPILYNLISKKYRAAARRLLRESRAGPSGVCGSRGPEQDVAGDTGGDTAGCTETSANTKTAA
Assay: Motilin receptor binding test (125I-labeled motilin)
Settings: rabbit duodenum tunica muscularis homogenate; 25 pM 125I-labeled motilin; 25° C., 120 minutes; test drug in DMSO (final 1%); read-out: IC50, the concentration of the test drug which reduces the specific binding capacity to 50%
Experimental: Motilin receptor binding test was carried out by the method shown below (see V. Bormans, et al., Regul, Peptides, 15, 143 (1986)). From a slaughtered rabbit was removed the duodenum, of which the mucous membrane was detached from the tunica muscularis and then homogenized in a 50 mM Tris solution (pH 7.4) to prepare a protein solution. After incubating 25 pM ^125 I-labeled motilin (available from Otsuka Assay Laboratory) and the protein solution at 25° C. for 120 minutes, radioactivity in the protein solution was measured with a γ-ray counter. The difference between the radioactivity observed in the case of non-addition of motilin and that observed in the case of addition of an excess (1×10^-7 M) of motilin was defined as the specific binding capacity. The efficacy of the sample was expressed as IC50, the concentration of the test drug which reduces the specific binding capacity to 50%. The test drug was dissolved in a DMSO solution and added to the protein solution (the final DMSO concentration: 1%).

pIC50: 8.24
SMILES: COC1(C)CC(OC2C(C)C(=O)OC(C)C(=O)C(C)C3=C(C)CC(C)(O3)C(OC3OC(C)CC(N(C)C)C3O)C2C)OC(C)C1O (stereo not shown) [Compound 4]
